Where “and” joins values, the source holds several entries; their conditions need not be identical. Equal values may be shown once. Read-outs that look alike come from different tables or passages of the source.
Columns and labels:
Conditions in all cases: in vivo
kidney beans [1] = system: kidney beans; design: species or system kidney bean
cotton plants [2] = system: cotton plants; design: species or system cotton (Gossypium hirsutum)
cotton plants [3] = system: cotton plants; design: species or system cotton (Gossypium hirsutum); remark: listed apart in the source
kidney beans [4] = system: kidney beans; design: species or system kidney bean; remark: listed apart in the source
cotton plants [5] = system: cotton plants; design: species or system cotton (Gossypium hirsutum); remark: listed apart in the source
red kidney bean plants [6] = system: red kidney bean plants
cotton plants [7] = system: cotton plants; design: species or system cotton (Gossypium hirsutum); remark: listed apart in the source
red kidney bean plants [8] = system: red kidney bean plants; remark: listed apart in the source
potato plants = system: potato plants

## CCOC(=O)/C(Cl)=C/c1cc(N2C(=O)C3=C(CCCC3)C2=O)ccc1Cl [BAS 123W, cinidon-ethyl]
Kidney beans [1]
  % Regrowth at 21 DAT: 124% and 110% and 73%
  regrowth: tended to promote regrowth

## C/C(=N\NC(=O)Nc1cc(F)cc(F)c1)c1ncccc1C(=O)O [DFP, diflufenzopyr]
Cotton plants [2]
  % Defoliation: 23% and 40% and 39% and 21%
Cotton plants [3]
  % Regrowth Avg.: 7% and 6%
Kidney beans [1]
  regrowth: reduced regrowth as compared to the untreated check
Kidney beans [4]
  % Defoliation 15 DAT: 59%

## O=P(O)(O)CCCl [ETP, (2-chloroethyl)phosphonic acid]
Cotton plants [2]
  % Defoliation: 58% and 78%
Cotton plants [5]
  % Defoliation: 31% and 49%
Red kidney bean plants [6]
  % Regrowth: 10%
Cotton plants [3]
  % Regrowth Avg.: 51%
Kidney beans [4]
  % Defoliation 15 DAT: 28%
Cotton plants [7]
  % Regrowth 20 DAT: 36.3%
Red kidney bean plants [8]
  % Defoliation: 18% and 20%

## C[n+]1ccc(-c2cc[n+](C)cc2)cc1 [Paraquat, paraquat]
Potato plants
  Percent Defoliation: 76% and 44%
